What was measured:
[1] = molecular target: SARS-CoV-2 3CLpro (Severe acute respiratory syndrome coronavirus 2, UniProt P0DTD1); test: FRET based protease assay, SARS-CoV-2 3CL; assay type: biochemical, SARS-CoV-2 (strain BetaCoV/Wuhan/WIV04/2019)
[2] = molecular target: MERS-CoV 3CLpro (Middle East respiratory syndrome-related coronavirus, UniProt K9N638); test: biochemical; conditions: MERS IC50, 75 nM MERS-CoV 3CLpro, 6 μM peptide 1 substrate, 25° C., 1.5 hrs, pH 7.5
Chain of MERS-CoV 3CLpro (K9N638 3248-3553 limits assumed): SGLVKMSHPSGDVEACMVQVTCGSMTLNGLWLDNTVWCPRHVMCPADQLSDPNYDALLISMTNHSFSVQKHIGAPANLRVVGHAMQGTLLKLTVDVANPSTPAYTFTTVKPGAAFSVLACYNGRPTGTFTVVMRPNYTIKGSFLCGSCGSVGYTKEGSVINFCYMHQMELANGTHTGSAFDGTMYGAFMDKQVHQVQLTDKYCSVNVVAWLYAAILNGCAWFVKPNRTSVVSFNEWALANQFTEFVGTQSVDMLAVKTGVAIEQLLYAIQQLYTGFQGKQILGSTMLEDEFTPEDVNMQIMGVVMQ

CC(C)(C)OC(=O)N[C@@]1(C)CCCCC[C@H]2CNC(=O)[C@H]2C[C@@H](C#N)NC(=O)[C@@H]2[C@@H]3[C@H](CN2C1=O)C3(C)C [Example 126] was tested, and the IC50 [1] was greater than 20000 nM and the IC50 [2] was greater than 20000 nM.
With CC(C)C[C@@H]1NC(=O)CCCC[C@H]2CNC(=O)[C@H]2C[C@@H](C=O)NC1=O [Example 2] the IC50 [1] was 1000 to 20000 nM and the IC50 [2] was greater than 20000 nM.
In the case of CC1(C(=O)N[C@H]2CCCC[C@H]3CNC(=O)[C@H]3C[C@@H](C#N)NC(=O)[C@@H]3[C@@H]4[C@H](CN3C2=O)C4(C)C)COC1 [Example 123], the IC50 [1] is reported as less than 100 nM and the IC50 [2] is reported as 100 to 1000 nM.
For CC(C)(C)C(=O)N[C@H]1CCC[C@H]2CCNC(=O)[C@@H]2C[C@@H](C#N)NC(=O)[C@@H]2[C@@H]3[C@H](CN2C1=O)C3(C)C [Example 66], the IC50 [1] was less than 100 nM and the IC50 [2] was 100 to 1000 nM.
Work on CC1(C)[C@@H]2[C@H]3C(=O)N[C@H](C#N)C[C@@H]4C(=O)NC[C@@H]4CCCC[C@H](NC(=O)C45CC(C(F)(F)F)(C4)C5)C(=O)N3C[C@@H]21 [Example 119] yielded an IC50 [1] of less than 100 nM and an IC50 [2] of less than 100 nM.
Work on CC1(C)[C@@H]2[C@H]3C(=O)N[C@H](C#N)C[C@@H]4C(=O)NC[C@@H]4CCCC[C@H](NC(=O)C4CCCCC4)C(=O)N3C[C@@H]21 [Example 77] yielded an IC50 [1] of less than 100 nM and an IC50 [2] of less than 100 nM.
In the case of CC(C)C[C@@H]1NC(=O)[C@@H](C2CCCC2)CCC[C@H]2CNC(=O)[C@@H]2C[C@@H](C#N)NC1=O [Example 28], the IC50 [1] is reported as 1000 to 20000 nM and the IC50 [2] is reported as 1000 to 20000 nM.
CC1(C)[C@@H]2[C@H]3C(=O)N[C@H](C#N)C[C@@H]4C(=O)NC[C@@H]4CCCC[C@H](NC(=O)C(F)(F)F)C(=O)N3C[C@@H]21 [Example 87] gave an IC50 [1] of less than 100 nM and an IC50 [2] of less than 100 nM.
CC(C)C[C@@H]1NC(=O)CCCC[C@H]2CNC(=O)[C@@H]2C[C@@H](C=O)NC1=O [Example 4] showed an IC50 [1] of less than 100 nM and an IC50 [2] of 100 to 1000 nM.
For N#C[C@@H]1C[C@@H]2C(=O)NC[C@@H]2CCCC[C@H](NC(=O)C(F)(F)F)C(=O)N2C[C@@H]3CCC[C@@H]3[C@H]2C(=O)N1 [Example 88], the IC50 [1] was less than 100 nM and the IC50 [2] was 100 to 1000 nM.
For N#C[C@@H]1C[C@@H]2C(=O)NC[C@@H]2CCCC[C@H](NS(=O)(=O)c2ccc(F)cc2F)C(=O)N2C[C@@H]3CCC[C@@H]3[C@H]2C(=O)N1 [Example 155], the IC50 [1] was less than 100 nM and the IC50 [2] was 100 to 1000 nM.
With CC(C)(C)C(=O)N[C@H]1CCCC[C@H]2CNC(=O)[C@H]2C[C@@H](C#N)NC(=O)[C@@H]2CCCN2C1=O [Example 74] the IC50 [1] was 1000 to 20000 nM and the IC50 [2] was 1000 to 20000 nM.
CC(C)(C)OC(=O)N[C@H]1CC/C=C/[C@H]2CCNC(=O)[C@H]2C[C@@H](C#N)NC(=O)[C@@H]2[C@H]3CCC[C@H]3CN2C1=O [Example 99] was tested, and the IC50 [1] was 100 to 1000 nM and the IC50 [2] was 1000 to 20000 nM.
CC(C)C[C@@H]1NC(=O)[C@@H](N(C)C(=O)OC(C)(C)C)CCC[C@H]2CNC(=O)[C@@H]2C[C@@H](C#N)NC1=O [Example 22] was tested, and the IC50 [1] was greater than 20000 nM and the IC50 [2] was greater than 20000 nM.
With CC(C)C[C@@H]1NC(=O)[C@@H](Cc2ccccc2)CCCC[C@H]2CNC(=O)[C@@H]2C[C@@H](C=O)NC1=O [Example 37] the IC50 [1] was less than 100 nM and the IC50 [2] was 100 to 1000 nM.
With CC1(C)[C@@H]2[C@H]3C(=O)N[C@H](C#N)C[C@@H]4C(=O)NCC[C@@H]4CCCC[C@H](NC(=O)C(F)(F)F)C(=O)N3C[C@@H]21 [Example 104] the IC50 [1] was less than 100 nM and the IC50 [2] was less than 100 nM.

From patent US20260325540A1 (priority 2023, published 2026)
